Experimental data reported in paper PMC2233662 (The Journal of General Physiology, 2001).

Target: r-InsP3R-3 (recombinant rat type 3 InsP3R) (Rattus norvegicus, UniProt Q63269)
Assay: single-channel patch clamp of outer nuclear membrane of isolated oocyte nuclei
Type: cell-based

r-InsP3R-3 (recombinant rat type 3 InsP3R), sequence (Q63269 whole entry): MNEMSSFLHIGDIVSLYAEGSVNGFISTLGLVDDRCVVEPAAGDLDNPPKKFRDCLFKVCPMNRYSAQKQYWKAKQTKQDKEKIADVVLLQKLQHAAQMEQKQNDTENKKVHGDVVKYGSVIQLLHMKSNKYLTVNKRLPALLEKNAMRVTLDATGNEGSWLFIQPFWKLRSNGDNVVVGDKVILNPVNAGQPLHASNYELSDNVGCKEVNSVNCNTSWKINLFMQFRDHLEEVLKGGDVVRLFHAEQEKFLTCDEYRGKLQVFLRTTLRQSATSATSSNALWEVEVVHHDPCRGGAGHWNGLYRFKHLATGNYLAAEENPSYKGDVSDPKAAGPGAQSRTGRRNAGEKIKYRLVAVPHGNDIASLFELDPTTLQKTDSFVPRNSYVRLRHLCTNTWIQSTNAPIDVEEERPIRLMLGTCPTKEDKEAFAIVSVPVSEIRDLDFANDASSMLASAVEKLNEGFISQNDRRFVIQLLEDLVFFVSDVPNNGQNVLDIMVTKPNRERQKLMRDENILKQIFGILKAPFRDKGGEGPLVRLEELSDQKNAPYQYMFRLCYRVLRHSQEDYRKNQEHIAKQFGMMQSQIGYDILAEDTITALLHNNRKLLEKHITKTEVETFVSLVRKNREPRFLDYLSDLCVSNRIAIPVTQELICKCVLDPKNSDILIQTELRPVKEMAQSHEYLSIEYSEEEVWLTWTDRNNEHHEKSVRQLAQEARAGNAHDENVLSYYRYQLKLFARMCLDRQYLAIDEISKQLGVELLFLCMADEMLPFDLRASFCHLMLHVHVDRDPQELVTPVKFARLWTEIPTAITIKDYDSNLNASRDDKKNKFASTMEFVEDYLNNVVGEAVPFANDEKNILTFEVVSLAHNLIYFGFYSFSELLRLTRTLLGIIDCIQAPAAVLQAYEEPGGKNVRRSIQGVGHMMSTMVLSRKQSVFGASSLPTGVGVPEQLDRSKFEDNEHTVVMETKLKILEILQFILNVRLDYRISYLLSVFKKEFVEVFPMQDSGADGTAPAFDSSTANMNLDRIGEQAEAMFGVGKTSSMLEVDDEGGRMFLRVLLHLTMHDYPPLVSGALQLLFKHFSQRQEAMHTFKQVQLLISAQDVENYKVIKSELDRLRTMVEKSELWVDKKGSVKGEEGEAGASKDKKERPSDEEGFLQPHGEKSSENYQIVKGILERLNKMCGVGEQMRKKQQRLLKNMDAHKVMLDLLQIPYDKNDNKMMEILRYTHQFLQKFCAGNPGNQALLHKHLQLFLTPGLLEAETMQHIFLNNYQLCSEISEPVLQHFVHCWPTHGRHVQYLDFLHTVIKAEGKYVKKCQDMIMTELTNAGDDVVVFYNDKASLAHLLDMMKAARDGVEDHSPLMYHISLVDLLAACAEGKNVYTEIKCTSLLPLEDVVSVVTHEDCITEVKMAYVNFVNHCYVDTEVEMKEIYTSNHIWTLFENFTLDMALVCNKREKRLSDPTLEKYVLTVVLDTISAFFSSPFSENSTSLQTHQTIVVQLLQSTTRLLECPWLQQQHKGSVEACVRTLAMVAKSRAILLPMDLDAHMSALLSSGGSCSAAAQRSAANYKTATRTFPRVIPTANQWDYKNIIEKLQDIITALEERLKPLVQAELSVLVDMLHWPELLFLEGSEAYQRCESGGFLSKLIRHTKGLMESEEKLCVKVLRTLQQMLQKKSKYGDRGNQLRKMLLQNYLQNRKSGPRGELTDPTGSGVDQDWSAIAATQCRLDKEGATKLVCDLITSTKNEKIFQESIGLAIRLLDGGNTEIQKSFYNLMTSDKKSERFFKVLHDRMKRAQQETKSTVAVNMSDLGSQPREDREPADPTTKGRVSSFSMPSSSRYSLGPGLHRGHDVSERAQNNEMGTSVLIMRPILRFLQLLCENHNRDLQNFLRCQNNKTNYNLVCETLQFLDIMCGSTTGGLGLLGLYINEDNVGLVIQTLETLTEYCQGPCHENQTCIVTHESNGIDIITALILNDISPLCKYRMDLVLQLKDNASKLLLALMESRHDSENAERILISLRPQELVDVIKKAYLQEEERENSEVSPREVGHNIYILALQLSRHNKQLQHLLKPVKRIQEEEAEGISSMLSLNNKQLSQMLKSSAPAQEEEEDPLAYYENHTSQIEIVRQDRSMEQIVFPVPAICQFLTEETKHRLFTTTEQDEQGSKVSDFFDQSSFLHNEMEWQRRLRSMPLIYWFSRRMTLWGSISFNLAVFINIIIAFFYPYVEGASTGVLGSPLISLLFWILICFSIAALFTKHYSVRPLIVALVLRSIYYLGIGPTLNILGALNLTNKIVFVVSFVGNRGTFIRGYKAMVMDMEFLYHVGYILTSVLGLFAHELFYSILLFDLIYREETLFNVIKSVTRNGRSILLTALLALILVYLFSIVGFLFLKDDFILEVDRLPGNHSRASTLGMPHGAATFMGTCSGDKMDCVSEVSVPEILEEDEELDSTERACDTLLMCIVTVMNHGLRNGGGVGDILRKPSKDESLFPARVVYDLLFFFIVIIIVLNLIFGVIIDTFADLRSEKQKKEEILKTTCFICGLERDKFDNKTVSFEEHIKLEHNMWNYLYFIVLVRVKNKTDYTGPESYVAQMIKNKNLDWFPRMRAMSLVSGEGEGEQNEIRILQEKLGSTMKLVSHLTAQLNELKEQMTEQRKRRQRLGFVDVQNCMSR

- EC50: 55 ± 6 nM
Compound: O=P(O)(O)O[C@@H]1[C@H](O)[C@H](O)[C@@H](OP(=O)(O)O)[C@H](OP(=O)(O)O)[C@H]1O [InsP3]
